Measured values taken from article PMC6560211, “ApoAI-derived peptide increases glucose tolerance and prevents formation of atherosclerosis in mice” (Diabetologia, 2019).
No end group written: not given here.

Tested on: INS-1E cells
Assay: Glucose-stimulated insulin secretion assay
Format: cell-based, rat
Settings: 2 h preincubation with RG54 at 3.3 mmol/l glucose, then 1 h at 20 mmol/l glucose without peptide; ELISA; three independent experiments
Protocol: INS-1E cells were preincubated for 2 h with HEPES KRB supplemented with 3.3 mmol/l glucose and RG54, then stimulated for 1 h with HEPES KRB supplemented with either 3.3 or 20 mmol/l glucose but no RG54 peptide, and insulin secretion was analysed using ELISA (Mercodia, Uppsala, Sweden). See ESM Methods for more details.
Fig. 3 RG54 induces skeletal muscle glucose uptake and primes INS-1E cells to increase GSIS. (a) C2C12 skeletal muscle myotubes were incubated in the absence or presence of different concentrations of RG54 or with insulin, followed by glucose uptake measurements. Values are means ± SEM from three independent experiments. *p≤0.05, **p≤0.01, ***p≤0.001 vs control. […] Insulin secretion was measured after 1 h glucose challenge. […]
Peptide concentration was determined at 205 nm using a NanoDrop 2000c spectrophotometer (Thermo Scientific) and integrity was analysed by Tris-Tricine SDS-PAGE followed by coomassie staining or by circular dichroism spectroscopy (CD). […]
The primary goal of this study was to investigate the anti -diabetic and anti-atherosclerotic efficacy of a novel ApoA -I derived peptide. Using a range of in vitro models, we assessed the effects of the peptide on HDL formation, cholesterol efflux, insulin secretion, and non -insulin dependent glucose uptake. […] Peptide effects were measured relative to full length ApoA -I and vehicle controls. […]

Ac-AEYHAKATEHLSTLSEKAKPALEDLRQGLLPVLESFKVSFLSALEEYTKKLNTQ [RG54]
GSIS compared with control cells: up to a twofold increase
